From PubChem BioAssay (NCI)
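1) Cells in 96-well plates. 2) Compound, 48 h, 5 concentrations. 3) Linear interpolation between surrounding doses. 4) Unreached endpoint = highest concentration. Definition used: TGI = concentration required for complete inhibition of growth.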

Assays:
Experiment in all cases: NCI anticancer screen, dose series, 48 h
[1] = system: HCT-116 colon
[2] = system: DLD-1 colon
[3] = system: HOP-62 NSCLC
[4] = system: NCI-H226 lung
[5] = system: NCI-H522 lung
[6] = system: CCRF-CEM leukemia
[7] = system: HT29 colon
[8] = system: M19-MEL melanoma
[9] = system: SK-MEL-28 melanoma
[10] = system: KM12 colon
[11] = system: UACC-62 melanoma
[12] = system: DMS 273 small cell lung
[13] = system: SNB-78 CNS
[14] = system: SK-MEL-2 melanoma
[15] = system: A549 NSCLC
[16] = system: SF-539 CNS
[17] = system: UO-31 renal
[18] = system: U251 CNS
[19] = system: HOP-18 NSCLC
[20] = system: HCC-2998 colon
[21] = system: SF-268 CNS
[22] = system: 786-0 renal
[23] = system: SK-OV-3 ovarian
[24] = system: DMS 114 small cell lung
[25] = system: UACC-257 melanoma
[26] = system: SF-295 CNS
[27] = system: SNB-19 CNS
[28] = system: SN12C renal
[29] = system: LXFL 529 NSCLC
[30] = system: OVCAR-4 ovarian
[31] = system: A498 renal
[32] = system: M14 melanoma
[33] = system: SW-620 colon
[34] = system: OVCAR-8 ovarian
[35] = system: HL-60(TB) leukemia
[36] = system: MOLT-4 leukemia
[37] = system: HOP-92 NSCLC
[38] = system: SK-MEL-5 melanoma
[39] = system: SR leukemia
[40] = system: TK-10 renal
[41] = system: MALME-3M melanoma
[42] = system: RPMI-8226 leukemia
[43] = system: LOX IMVI melanoma
[44] = system: OVCAR-3 ovarian
[45] = system: SNB-75 CNS
[46] = system: NCI-H23 lung
[47] = system: K-562 leukemia
[48] = system: OVCAR-5 ovarian
[49] = system: EKVX NSCLC
[50] = system: HCT-15 colon
[51] = system: IGROV1 ovarian
[52] = system: COLO 205 colon
[53] = system: NCI-H460 lung
[54] = system: XF 498 CNS
[55] = system: RXF 393 renal
[56] = system: KM20L2 colon
[57] = system: CAKI-1 renal
[58] = system: ACHN renal

Question: Which results are given for `Cc1c(-c2ccccc2)c(=O)oc2ccc(Cl)cc12`?
Answer: TGI [1]: > 100 µM; TGI [2]: > 100 µM; TGI [3]: > 100 µM; TGI [4]: > 100 µM; TGI [5]: > 100 µM; TGI [6]: > 100 µM; TGI [7]: > 100 µM; TGI [8]: > 100 µM; TGI [9]: > 100 µM; TGI [10]: > 100 µM; TGI [11]: > 100 µM; TGI [12]: > 100 µM; TGI [13]: > 100 µM; TGI [14]: > 100 µM; TGI [15]: > 100 µM; TGI [16]: > 100 µM; TGI [17]: > 100 µM; TGI [18]: > 100 µM; TGI [19]: > 100 µM; TGI [20]: > 100 µM; TGI [21]: > 100 µM; TGI [22]: > 100 µM; TGI [23]: > 100 µM; TGI [24]: > 100 µM; TGI [25]: > 100 µM; TGI [26]: > 100 µM; TGI [27]: > 100 µM; TGI [28]: > 100 µM; TGI [29]: > 100 µM; TGI [30]: > 100 µM; TGI [31]: > 100 µM; TGI [32]: > 100 µM; TGI [33]: > 100 µM; TGI [34]: > 100 µM; TGI [35]: > 100 µM; TGI [36]: > 100 µM; TGI [37]: > 100 µM; TGI [38]: > 100 µM; TGI [39]: > 100 µM; TGI [40]: > 100 µM; TGI [41]: > 100 µM; TGI [42]: > 100 µM; TGI [43]: > 100 µM; TGI [44]: > 100 µM; TGI [45]: 43.7 µM; TGI [46]: > 100 µM; TGI [47]: > 100 µM; TGI [48]: > 100 µM; TGI [49]: > 100 µM; TGI [50]: > 100 µM; TGI [51]: > 100 µM; TGI [52]: > 100 µM; TGI [53]: > 100 µM

Question: How did the TGI [1] turn out when `COCc1c(CO)cnc(C)c1OC1OC(CO)C(O)C(O)C1O` (stereo not drawn) was run?
Answer: The TGI was > 100 µM.

Question: What about the TGI [2] of the same molecule?
Answer: The TGI was > 100 µM.

Question: And the TGI [3]?
Answer: The TGI was > 100 µM.

Question: What about the TGI [54] of the same molecule?
Answer: The TGI was > 100 µM.

Question: And the TGI [4]?
Answer: The TGI was > 100 µM.

Question: What about the TGI [55] of the same molecule?
Answer: The TGI was > 100 µM.

Question: What about the TGI [5] of the same molecule?
Answer: Its TGI is > 100 µM.

Question: And the TGI [7]?
Answer: The TGI was > 100 µM.

Question: What about the TGI [8] of the same molecule?
Answer: The TGI was > 100 µM.

Question: And the TGI [9]?
Answer: Its TGI is > 100 µM.

Question: What about the TGI [10] of the same molecule?
Answer: The TGI was > 100 µM.

Question: And the TGI [11]?
Answer: The TGI was > 100 µM.

Question: And the TGI [12]?
Answer: The TGI was > 100 µM.

Question: And the TGI [14]?
Answer: The TGI was > 100 µM.

Question: What about the TGI [15] of the same molecule?
Answer: Its TGI is > 100 µM.

Question: And the TGI [16]?
Answer: The TGI was > 100 µM.

Question: What about the TGI [17] of the same molecule?
Answer: Its TGI is > 100 µM.

Question: And the TGI [18]?
Answer: The TGI was > 100 µM.

Question: What about the TGI [20] of the same molecule?
Answer: The TGI was > 100 µM.

Question: And the TGI [21]?
Answer: Its TGI is > 100 µM.

Question: What about the TGI [22] of the same molecule?
Answer: Its TGI is > 100 µM.

Question: What about the TGI [23] of the same molecule?
Answer: The TGI was > 100 µM.

Question: And the TGI [24]?
Answer: Its TGI is > 100 µM.

Question: And the TGI [25]?
Answer: Its TGI is > 100 µM.

Question: And the TGI [26]?
Answer: Its TGI is > 100 µM.

Question: And the TGI [27]?
Answer: The TGI was > 100 µM.

Question: What about the TGI [28] of the same molecule?
Answer: Its TGI is > 100 µM.

Question: And the TGI [29]?
Answer: Its TGI is > 100 µM.

Question: What about the TGI [30] of the same molecule?
Answer: Its TGI is > 100 µM.

Question: What about the TGI [56] of the same molecule?
Answer: Its TGI is > 100 µM.

Question: What about the TGI [31] of the same molecule?
Answer: The TGI was > 100 µM.

Question: What about the TGI [32] of the same molecule?
Answer: Its TGI is > 100 µM.

Question: And the TGI [33]?
Answer: Its TGI is > 100 µM.

Question: And the TGI [34]?
Answer: The TGI was > 100 µM.

Question: And the TGI [36]?
Answer: Its TGI is > 100 µM.

Question: What about the TGI [38] of the same molecule?
Answer: Its TGI is > 100 µM.

Question: And the TGI [39]?
Answer: The TGI was > 100 µM.

Question: And the TGI [41]?
Answer: The TGI was > 100 µM.

Question: What about the TGI [42] of the same molecule?
Answer: Its TGI is > 100 µM.

Question: And the TGI [43]?
Answer: The TGI was > 100 µM.

Question: And the TGI [44]?
Answer: Its TGI is > 100 µM.

Question: And the TGI [45]?
Answer: Its TGI is > 100 µM.

Question: What about the TGI [47] of the same molecule?
Answer: Its TGI is > 100 µM.

Question: And the TGI [48]?
Answer: The TGI was > 100 µM.

Question: And the TGI [57]?
Answer: The TGI was > 100 µM.

Question: And the TGI [49]?
Answer: Its TGI is > 100 µM.

Question: And the TGI [58]?
Answer: The TGI was > 100 µM.

Question: And the TGI [50]?
Answer: The TGI was > 100 µM.

Question: What about the TGI [51] of the same molecule?
Answer: The TGI was > 100 µM.

Question: And the TGI [53]?
Answer: The TGI was > 100 µM.
